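A five-concentration, 48-hour dose response in 96-well plates underlies each endpoint, interpolated linearly between surrounding concentrations. TGI: concentration producing complete growth inhibition.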
How the values were obtained:
Experiment in all cases: NCI anticancer screen, dose series, 48 h
IGROV1 ovarian = test system: IGROV1 ovarian
U251 CNS = test system: U251 CNS
COLO 205 colon = test system: COLO 205 colon
HOP-62 NSCLC = test system: HOP-62 NSCLC
RXF 393 renal = test system: RXF 393 renal
DU-145 prostate = test system: DU-145 prostate
HT29 colon = test system: HT29 colon
LOX IMVI melanoma = test system: LOX IMVI melanoma
HCC-2998 colon = test system: HCC-2998 colon
RPMI-8226 leukemia = test system: RPMI-8226 leukemia
UACC-257 melanoma = test system: UACC-257 melanoma
OVCAR-4 ovarian = test system: OVCAR-4 ovarian
SW-620 colon = test system: SW-620 colon
BT-549 breast = test system: BT-549 breast
MCF7 breast = test system: MCF7 breast
A498 renal = test system: A498 renal
SK-MEL-28 melanoma = test system: SK-MEL-28 melanoma
EKVX NSCLC = test system: EKVX NSCLC

Row | SMILES | TGI (IGROV1 ovarian) | TGI (U251 CNS) | TGI (COLO 205 colon) | TGI (HOP-62 NSCLC) | TGI (RXF 393 renal) | TGI (DU-145 prostate) | TGI (HT29 colon) | TGI (LOX IMVI melanoma) | TGI (HCC-2998 colon) | TGI (RPMI-8226 leukemia) | TGI (UACC-257 melanoma) | TGI (OVCAR-4 ovarian) | TGI (SW-620 colon) | TGI (BT-549 breast) | TGI (MCF7 breast) | TGI (A498 renal) | TGI (SK-MEL-28 melanoma) | TGI (EKVX NSCLC)
1 | CNc1ccc(-c2nc3cc(C)ccc3o2)cc1 | > 100 µM | > 100 µM | > 100 µM | > 100 µM | 79.8 µM | > 100 µM | > 100 µM | > 100 µM | > 100 µM | > 100 µM | > 100 µM | > 100 µM | > 100 µM | > 100 µM | > 100 µM | 77.8 µM | > 100 µM | > 100 µM
2 | O=C1Sc2ccc(Br)cc2C(=O)Sc2ccccc21 | 31.6 µM | 27.6 µM | 28.4 µM | 28.4 µM | 12.4 µM | 25.5 µM | 35.3 µM | 25.3 µM | 29.6 µM | 16.7 µM | 28.4 µM | 29.8 µM | 67.7 µM | 28.2 µM | 48.3 µM | 43.6 µM | 42.7 µM | 22.2 µM
3 | N#Cc1c(SCc2ccccc2)nc(-c2ccccc2)[nH]c1=S | 79.4 µM | 45.1 µM | 48.8 µM | 40.7 µM | 44.9 µM | > 100 µM | 60.1 µM | 63.9 µM | 39.8 µM | 89.9 µM | > 100 µM | > 100 µM | 60 µM | 54.2 µM | 71 µM | 63.8 µM | 55 µM | 93.6 µM
4 | CC(=O)N1CCc2c([nH]c3ccc(Br)cc23)C1c1ccccc1 (configuration not stated) | > 10 µM | > 10 µM | > 10 µM | > 10 µM | > 10 µM | > 10 µM | > 10 µM | > 10 µM | > 10 µM | > 10 µM | > 10 µM | > 10 µM | > 10 µM | > 10 µM | > 10 µM | > 10 µM | > 10 µM | > 10 µM
5 | Cn1c(=O)c2c(nc3n(Cc4ccccc4)c(=O)c(NCCBr)cn23)n(C)c1=O | > 100 µM | > 100 µM | > 100 µM | 43.2 µM | 35 µM | > 100 µM | > 100 µM | > 100 µM | 52 µM | > 100 µM | > 100 µM | 49.2 µM | > 100 µM | > 100 µM | > 100 µM | 91.1 µM | > 100 µM | 48.1 µM
6 | COC1=C(N=[N+]=[N-])C(=O)c2ncccc2C1=O | 13.1 µM | 27.7 µM | 6.35 µM | 29.4 µM | 11.9 µM | 35.1 µM | 33 µM | 7.78 µM | 31 µM | 4.89 µM | 13 µM | 5.7 µM | 4.24 µM | 23 µM | 3.41 µM | 30.9 µM | 27.4 µM | 17.3 µM
7 | COc1cccc(-c2ccc3c4c2O[C@H]2c5[nH]c6ccccc6c5C[C@@]5(O)[C@@H](C3)N(CC3CC3)CC[C@]425)c1 | 3.04 µM | 3.15 µM | 4.15 µM | 3.12 µM | 3.03 µM | 6.91 µM | 3.19 µM | 3.09 µM | 2.87 µM | 5.25 µM | 3.2 µM | 3.27 µM | 4.77 µM | 15.9 µM | 3.06 µM | 6.83 µM | > 23.1 µM | 9.5 µM
8 | [Se]=P(c1ccccc1)(c1ccccc1)c1ccc(C(c2ccccc2)=P(c2ccccc2)(c2ccccc2)c2ccccc2)cc1 | 11.5 µM | 5.25 µM | 0.659 µM | 4.33 µM | 10.9 µM | 14.5 µM | 2.17 µM | 2.48 µM | 11.6 µM | 8.05 µM | 5.59 µM | > 33.1 µM | 19.2 µM | 6.56 µM | 2.93 µM | 9.4 µM | 20.2 µM | 15.8 µM
9 | CCOC(=O)c1cc(C(=O)c2ccccc2)n2nc(-c3ccc(Cl)cc3)ccc12 | 38.8 µM | 66.3 µM | > 100 µM | 34.8 µM | 32.7 µM | 85.2 µM | 64.2 µM | > 100 µM | 51 µM | > 100 µM | 97.1 µM | 37.2 µM | > 100 µM | 35.4 µM | 53.2 µM | 49 µM | 68.3 µM | 42.6 µM
